Consider 17 compounds from patent US10799605B2 (3B PHARMACEUTICALS GMBH, priority 2014, dated 2020).

Where only a bound is given, the exact number is not on record here.

In one data set the target is B1R (Homo sapiens (Human), UniProt P46663). The data set is described as follows: Radioligand binding assay B1R (bradykinin B1 receptor). Particulars: read-out: Inhibition [at 100 nM, %]. The protocol:
(§1) In order to determine the binding affinity of compounds comprising a radiolabel for B1R, a radioligand binding assay was carried out. A radioligand is a radioactive biochemical substance that is used for diagnosis or for research-oriented study of cellular receptor systems of the body. In […] systems it is often used to quantify the binding of a test molecule to the binding site of radioligand. The higher the affinity of the molecule, the more radioligand is displaced from the binding site. The amount of bound radioligand can be measured by scintillation counting and thereby quantified. This assay is commonly used to calculate binding constants of molecules to receptors.
The B1R radioligand binding assay was performed by Cerep (Celle l'Evescault, France; Catalog reference 1189) according to (Jones et al., Eur J Pharmacol, 1999, 374, 423-433). B1R was prepared from CHO cells recombinantly expressing the human receptor and incubated with 0.35 nM [^3H]desArg^10-KD and serial dilutions of the test compounds. After 60 min incubation at 4° C. and washing to remove unbound ligand, bound radioactivity was measured by scintillation counting.

The nature of data set [1]: Plasma stability assay, mouse plasma. Type of data set: in vitro ADME. The protocol: (§2) The plasma stability assay was performed to measure the degradation of compounds of the present invention in plasma. This is an important characteristic of a compound as compounds, with the exception of pro-drugs, which rapidly degrade in plasma generally show poor in vivo efficacy.
(§3) The plasma was spiked with a 10 mM analyte solution in dimethyl sulfoxide to a final concentration of 10 μM, vortexed, and aliquotted to 50 μl samples. Two aliquots were stored at −20° C. until further treatment. Another two aliquots were incubated using an Eppendorf Thermomixer at 37° C. for 1, 4, and 24 hours. Sample clean-up was performed using a protein precipitation plate (Phenomenex Strata Impact, 64722-1-324-1) and using acetonitrile as precipitation agent. […] An aliquot of 10 μl was diluted with 90 μl 0.1% aqueous trifluoroacetic acid solution. The determination of the analyte in the clean sample solutions was performed on a Thermo TSQ Quantum Ultra triple quadrupole mass spectrometer equipped with a thermo Surveyor HPLC. The chromatographic separation was carried out on a Phenomenex Kinetex XB-C18 HPLC column (50×2 mm, […] particle size) with gradient elution using a mixture of 0.01% trifluoroacetic acid and 0.05% formic acid in water as eluent A and methanol as eluent B (20% B to 100% in 8 min, 400 μl/min, 40° C.). For mass spectrometric detection the selected reaction monitoring (SRM) was used.
(§4) Quantitation was performed by external matrix calibration using an internal standard.

Data set [2] has as its target T1, NTR1 (Homo sapiens (Human), UniProt P30989). Description: Radioligand binding assay NTR1 (example part II). Particulars: 0.05 nM 125I-(Tyr3-neurotensin), 60 min at 4° C.; read-out: IC50 [nM] RLB. The protocol:
as §1, with “NTR1,” for “B1R,”
The NTR1 radioligand binding assay was performed by Cerep (Celle l'Evescault, France; Catalog reference 0109) according to Vita et al., FEBS Lett., 1993, 317, 139-142. NTR1 was prepared from CHO cells recombinantly expressing the human receptor and incubated with 0.05 nM ^125I-(Tyr^3-neurotensin) and serial dilutions of the test compounds. […] The result for each test compound is expressed as IC50 concentration and provides a measure for the affinity of the test compound for NTR1.

The target in data set [3] is T1, NTR1. The data set is described as follows: Functional Ca2+ mobilisation assay (example part II). Type of data set: cell-based. Particulars: antagonist assay. An outline of the steps:
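HT29 or NTR1-expressing HEK293 cells loaded with Ca5 dye for 1 h at 37 °C in buffer at pH 7.4, and fluorescence recorded for about 90 s after addition. EC50 derived from agonist serial dilutions; IC50 from antagonists pre-incubated 30 min before an EC80 agonist challenge.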
Background: A change in cytosolic calcium serves as a functional read-out for many receptors and channels.

Data set [4] in a line: Plasma stability assay, human plasma. Type of data set: in vitro ADME. The protocol: as §2, §3, §4
In the next data set the target is dopamine transporter (h) (Homo sapiens (Human), UniProt Q01959). The data set is described as follows: ExpresSProfile: dopamine transporter, antagonist radioligand. Format: binding. The following applies: Reference Compound.
The target in the next data set is CB1 (h) (Homo sapiens (Human), UniProt P21554). Description: ExpresSProfile: cannabinoid receptor 1, agonist radioligand. Type of data set: binding. The following applies: Reference Compound.
For another data set, the system named is GABA (non-selective). The data set is described as follows: ExpresSProfile: GABA, agonist radioligand. Format: binding. The following applies: Reference Compound.
For a further data set, the target named is B2 (h) (Homo sapiens (Human), UniProt P30411). The data set is described as follows: ExpresSProfile: bradykinin receptor 2, agonist radioligand. Particulars: Reference Compound. Format: binding.
A further data set relates to HT29 cells. Particulars: human, 48 h.
Another data set addresses D1 (h) (Homo sapiens (Human), UniProt P21728). Description: ExpresSProfile: dopamine receptor 1, antagonist radioligand. Type of data set: binding. Particulars: Reference Compound.
The test system of a further data set is SKCa channel. Description: ExpresSProfile: SKCa channel, antagonist radioligand. Type of data set: binding. Particulars: Reference Compound.
In another data set the target is beta 1 (h) (Homo sapiens (Human), UniProt P08588). Description: ExpresSProfile: beta1 adrenergic receptor, agonist radioligand. The following applies: Reference Compound. Type of data set: binding.
The test system of a further data set is BZD (central). The data set is described as follows: ExpresSProfile: benzodiazepine, agonist radioligand. The following applies: Reference Compound. Format: binding.
The test system of the next data set is Cl-channel (GABA-gated). The data set is described as follows: ExpresSProfile: Cl-channel, antagonist radioligand. Type of data set: binding. The following applies: Reference Compound.
A further data set has as its target AT1 (h) (Homo sapiens (Human), UniProt P30556). The data set is described as follows: ExpresSProfile: angiotensin receptor 1, antagonist radioligand. Type of data set: binding. Particulars: Reference Compound.
Another data set deals with alpha 2 (non-selective). The data set is described as follows: ExpresSProfile: alpha2 adrenergic receptor, antagonist radioligand. Format: binding. The following applies: Reference Compound.
The target in another data set is D2S (h) (Homo sapiens (Human), UniProt P14416). The data set is described as follows: ExpresSProfile: dopamine receptor 2S, antagonist radioligand. Type of data set: binding.
The target in another data set is CXCR2 (IL-8B) (h) (Homo sapiens (Human), UniProt P25025). Description: ExpresSProfile: C-X-C chemokine receptor type 2, agonist radioligand. Format: binding. The following applies: Reference Compound.
Sequence of CXCR2 (IL-8B) (h) (P25025 whole entry): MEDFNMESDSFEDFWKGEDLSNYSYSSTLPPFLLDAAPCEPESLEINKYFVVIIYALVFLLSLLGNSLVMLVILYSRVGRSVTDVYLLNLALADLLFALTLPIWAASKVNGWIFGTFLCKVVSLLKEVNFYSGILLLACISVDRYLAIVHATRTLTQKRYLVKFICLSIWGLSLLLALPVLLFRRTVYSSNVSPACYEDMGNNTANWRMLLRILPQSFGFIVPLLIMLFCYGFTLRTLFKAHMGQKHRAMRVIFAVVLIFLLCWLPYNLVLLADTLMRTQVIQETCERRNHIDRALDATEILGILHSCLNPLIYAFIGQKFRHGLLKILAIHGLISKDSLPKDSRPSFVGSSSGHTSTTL

Sequence of B1R (P46663 whole entry): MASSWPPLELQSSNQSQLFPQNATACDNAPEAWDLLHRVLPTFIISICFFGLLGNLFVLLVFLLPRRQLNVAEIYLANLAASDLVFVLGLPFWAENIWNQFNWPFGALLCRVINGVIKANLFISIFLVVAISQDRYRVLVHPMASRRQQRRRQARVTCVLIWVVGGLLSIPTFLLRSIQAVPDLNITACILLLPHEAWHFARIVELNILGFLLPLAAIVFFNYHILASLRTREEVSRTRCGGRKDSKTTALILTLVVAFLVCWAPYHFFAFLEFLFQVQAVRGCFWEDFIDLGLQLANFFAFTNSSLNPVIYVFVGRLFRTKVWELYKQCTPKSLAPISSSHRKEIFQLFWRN
T1 sequence (P30989 whole entry): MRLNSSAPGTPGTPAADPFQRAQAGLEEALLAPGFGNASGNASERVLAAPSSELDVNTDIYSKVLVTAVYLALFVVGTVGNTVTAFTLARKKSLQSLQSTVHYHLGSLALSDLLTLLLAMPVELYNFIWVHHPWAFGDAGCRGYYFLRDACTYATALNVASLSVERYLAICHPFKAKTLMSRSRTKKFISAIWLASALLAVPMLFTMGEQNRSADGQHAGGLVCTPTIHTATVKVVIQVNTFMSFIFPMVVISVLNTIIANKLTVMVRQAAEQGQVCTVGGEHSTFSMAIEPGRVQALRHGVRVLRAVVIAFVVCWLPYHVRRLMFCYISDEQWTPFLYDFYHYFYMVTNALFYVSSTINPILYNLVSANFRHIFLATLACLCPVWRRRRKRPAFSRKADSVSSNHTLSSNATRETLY
Sequence of CB1 (h) (P21554 whole entry): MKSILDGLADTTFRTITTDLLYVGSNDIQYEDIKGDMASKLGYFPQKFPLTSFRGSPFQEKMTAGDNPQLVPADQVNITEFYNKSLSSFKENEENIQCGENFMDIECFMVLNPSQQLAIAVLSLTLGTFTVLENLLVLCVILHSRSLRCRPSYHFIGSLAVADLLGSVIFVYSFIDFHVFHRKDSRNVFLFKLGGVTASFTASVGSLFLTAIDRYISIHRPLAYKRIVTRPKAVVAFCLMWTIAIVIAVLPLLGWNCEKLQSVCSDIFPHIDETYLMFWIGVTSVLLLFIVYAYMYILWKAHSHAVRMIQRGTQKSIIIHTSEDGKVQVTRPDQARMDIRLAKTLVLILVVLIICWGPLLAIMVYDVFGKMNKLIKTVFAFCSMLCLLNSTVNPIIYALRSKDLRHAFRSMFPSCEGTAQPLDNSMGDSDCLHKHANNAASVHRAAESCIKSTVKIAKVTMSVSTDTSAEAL
Sequence of B2 (h) (P30411 whole entry): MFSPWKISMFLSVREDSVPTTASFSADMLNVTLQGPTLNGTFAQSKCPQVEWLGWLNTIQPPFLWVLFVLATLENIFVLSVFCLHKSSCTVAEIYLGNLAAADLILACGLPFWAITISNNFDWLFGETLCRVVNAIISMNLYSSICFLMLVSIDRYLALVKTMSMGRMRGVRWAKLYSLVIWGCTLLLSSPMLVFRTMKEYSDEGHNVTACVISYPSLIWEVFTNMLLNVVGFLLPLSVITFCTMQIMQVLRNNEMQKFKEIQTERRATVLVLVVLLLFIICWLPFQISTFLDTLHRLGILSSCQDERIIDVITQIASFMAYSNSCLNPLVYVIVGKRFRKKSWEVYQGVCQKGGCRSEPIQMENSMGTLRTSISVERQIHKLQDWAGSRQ
Sequence of AT1 (h) (P30556 whole entry): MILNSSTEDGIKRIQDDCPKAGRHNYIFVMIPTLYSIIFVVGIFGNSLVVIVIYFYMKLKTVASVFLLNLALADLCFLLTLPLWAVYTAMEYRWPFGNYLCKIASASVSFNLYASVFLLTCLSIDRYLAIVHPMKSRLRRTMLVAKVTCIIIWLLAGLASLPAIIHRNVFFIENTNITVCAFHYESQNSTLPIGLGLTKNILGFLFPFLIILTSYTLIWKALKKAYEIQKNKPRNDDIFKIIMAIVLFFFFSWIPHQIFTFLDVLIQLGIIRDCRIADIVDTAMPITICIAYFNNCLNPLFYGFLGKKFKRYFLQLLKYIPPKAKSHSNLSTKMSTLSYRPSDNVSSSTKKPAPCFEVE
Sequence of dopamine transporter (h) (Q01959 whole entry): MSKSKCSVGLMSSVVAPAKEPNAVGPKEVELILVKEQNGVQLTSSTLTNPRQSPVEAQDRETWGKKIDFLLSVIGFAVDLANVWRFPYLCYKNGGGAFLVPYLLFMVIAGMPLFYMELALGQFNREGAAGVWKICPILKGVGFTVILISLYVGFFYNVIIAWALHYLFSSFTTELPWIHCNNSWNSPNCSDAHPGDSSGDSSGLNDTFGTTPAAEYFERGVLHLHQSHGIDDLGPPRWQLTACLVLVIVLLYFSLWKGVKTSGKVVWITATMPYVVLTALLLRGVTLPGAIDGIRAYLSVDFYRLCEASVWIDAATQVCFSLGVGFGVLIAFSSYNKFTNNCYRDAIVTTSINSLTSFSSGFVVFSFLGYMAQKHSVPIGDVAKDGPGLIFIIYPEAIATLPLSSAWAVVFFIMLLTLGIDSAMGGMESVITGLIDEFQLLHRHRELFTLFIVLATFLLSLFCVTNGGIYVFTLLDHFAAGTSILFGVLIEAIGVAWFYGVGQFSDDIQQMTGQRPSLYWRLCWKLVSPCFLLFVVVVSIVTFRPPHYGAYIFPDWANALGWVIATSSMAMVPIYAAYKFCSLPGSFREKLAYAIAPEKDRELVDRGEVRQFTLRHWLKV
Sequence of D2S (h) (P14416 other isoform, or with tags, fused parts or gaps): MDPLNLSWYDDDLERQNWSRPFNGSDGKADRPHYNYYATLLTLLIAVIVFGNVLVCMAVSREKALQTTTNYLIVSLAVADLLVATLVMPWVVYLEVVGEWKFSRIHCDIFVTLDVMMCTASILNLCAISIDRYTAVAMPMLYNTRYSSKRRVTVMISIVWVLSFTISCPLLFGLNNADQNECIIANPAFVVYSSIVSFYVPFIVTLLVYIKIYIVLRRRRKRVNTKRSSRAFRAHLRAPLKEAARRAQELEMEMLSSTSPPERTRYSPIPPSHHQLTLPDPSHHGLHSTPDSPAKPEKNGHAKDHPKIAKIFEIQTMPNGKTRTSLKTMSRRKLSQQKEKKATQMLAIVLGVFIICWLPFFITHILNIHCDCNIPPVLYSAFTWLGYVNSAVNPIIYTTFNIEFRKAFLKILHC
Sequence of beta 1 (h) (P08588 whole entry): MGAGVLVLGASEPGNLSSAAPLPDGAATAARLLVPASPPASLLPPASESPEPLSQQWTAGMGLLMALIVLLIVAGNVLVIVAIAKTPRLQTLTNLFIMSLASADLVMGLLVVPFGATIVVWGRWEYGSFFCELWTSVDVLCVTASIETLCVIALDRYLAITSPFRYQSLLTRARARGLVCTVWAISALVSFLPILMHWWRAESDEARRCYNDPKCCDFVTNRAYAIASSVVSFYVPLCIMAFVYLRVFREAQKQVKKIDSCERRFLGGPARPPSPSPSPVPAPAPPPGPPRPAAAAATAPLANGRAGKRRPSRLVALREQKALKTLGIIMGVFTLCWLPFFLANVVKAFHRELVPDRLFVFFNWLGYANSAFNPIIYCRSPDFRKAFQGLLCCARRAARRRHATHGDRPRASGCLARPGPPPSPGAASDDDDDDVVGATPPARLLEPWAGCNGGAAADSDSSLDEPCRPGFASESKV
Sequence of D1 (h) (P21728 whole entry): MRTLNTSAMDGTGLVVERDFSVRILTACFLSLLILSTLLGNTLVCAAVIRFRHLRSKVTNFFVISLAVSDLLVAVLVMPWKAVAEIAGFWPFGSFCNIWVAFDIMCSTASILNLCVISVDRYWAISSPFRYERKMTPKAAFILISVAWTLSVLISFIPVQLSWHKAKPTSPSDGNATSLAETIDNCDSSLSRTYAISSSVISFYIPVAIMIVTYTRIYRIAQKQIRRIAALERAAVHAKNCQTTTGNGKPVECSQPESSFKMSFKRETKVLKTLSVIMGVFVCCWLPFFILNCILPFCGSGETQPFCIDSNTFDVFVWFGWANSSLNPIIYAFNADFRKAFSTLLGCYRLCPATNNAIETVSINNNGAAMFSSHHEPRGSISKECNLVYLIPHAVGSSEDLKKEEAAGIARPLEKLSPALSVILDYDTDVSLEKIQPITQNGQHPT

As a reminder, the inhibition is the change of the read-out against control, counted positive when it falls. With `COc1cccc(OC)c1-c1cc(C(=O)NC2(C(=O)O)C3CC4CC(C3)CC2C4)nn1-c1ccc(C(=O)N(C)CCCN(C)CCCN(C)C(=O)CCCC(=O)NCCCOCCOCCOCCCNC(=O)CCC(=O)N[C@@H](CCCCNC(=O)CN2CCN(CC(=O)O)CCN(CC(=O)O)CCN(CC(=O)O)CC2)C(=O)NCCCOCCOCCOCCCNC(=O)CCC(=O)N[C@@H](CCCCN)C(=O)N[C@@H](CCCNC(=N)N)C(=O)N2CCC[C@H]2C(=O)N2C[C@H](O)C[C@H]2C(=O)NCC(=O)N[C@@H](CC2CCCCC2)C(=O)N[C@@H](CO)C(=O)N2CCC[C@H]2C(=O)N[C@@H](CC(C)C)C(=O)O)cc1C(C)C` (stereo partly drawn) [(26), 1206-Glutar-Ttds-Lys(DOTA)-Ttds-GABA-Lys-Arg-Pro-Hyp-Gly-Cha-Ser-Pro-Leu-OH], the inhibition at 0.1 µM on B1R came out at 20%.
Take `CC[C@H](C)[C@H](NC(=O)[C@@H](Cc1ccc2ccccc2c1)NC(=O)[C@H](CO)NC(=O)[C@](C)(Cc1ccccc1)NC(=O)CNC(=O)[C@@H]1CCCN1C(=O)[C@@H]1C[C@@H]2CCCC[C@@H]2N1C(=O)[C@H](CCCNC(=N)N)NC(=O)[C@H](CCCN)NC(=O)CCC(=O)NCCCOCCOCCOCCCNC(=O)[C@H](CCCCNC(=O)CN1CCN(CC(=O)O)CCN(CC(=O)O)CCN(CC(=O)O)CC1)NC(=O)CCC(=O)NCCCOCCOCCOCCCNC(=O)CCCC(=O)N(C)CCCN(C)CCCN(C)C(=O)c1ccc(-n2nc(C(=O)NC3(C(=O)O)C4CC5CC(C4)CC3C5)cc2-c2c(OC)cccc2OC)c(C(C)C)c1)C(=O)O` (stereo partly drawn) [(27), 1206-Glutar-Ttds-Lys(DOTA)-Ttds-GABA-Orn-Arg-Oic-Pro-Gly-Amf-Ser-nal-Ile-OH]: the inhibition at 0.1 µM at B1R is 17%.
A word on the IC50: it is the point on the concentration scale where inhibition reaches its midpoint. For `COc1cccc(OC)c1-c1cc(C(=O)NC2(C(=O)O)C3CC4CC(C3)CC2C4)nn1-c1ccc(C(=O)N(CCCNC(=O)CN2CCN(CC(=O)O)CCN(CC(=O)O)CCN(CC(=O)O)CC2)CCCN(C)C)cc1C(C)C` (stereo not shown) [(Va), 2-{[1-{4-[(3-DOTA-amino-propyl)-(3-dimethylamino-propyl)-carbamoyl]-2-isopropyl-phenyl}-5-(2,6-dimethoxy-phenyl)-1H-pyrazole-3-carbonyl]-amino}-adamantane-2-carboxylic acid], in data set [1], the “stability in mouse plasma” value is given as “highly stable”. Also, the “% remaining after 24 h incubation, Mouse plasma” value in data set [1] (10 μM, 37° C., 24 h) is on record as more than 60%. For the same compound, the IC50 on NTR1 [2] came out at 3.4 nM; at NTR1 [3] it was 12.6 nM. Besides, the “stability in human plasma” value in data set [4] was “highly stable”. Also, the “% remaining after 24 h incubation, Human plasma” value in data set [4] (10 μM, 37° C., 24 h) is more than 70%.
For the compound `c1ccc2sc(C3(N4CCCCC4)CCCCC3)cc2c1` [BTCP], the “nH Ref” value at dopamine transporter (h) was determined as 1.0.
With `CCCCCCC(C)(C)c1ccc([C@@H]2C[C@H](O)CC[C@H]2CCCO)c(O)c1` [CP 55940], the “nH Ref” value at CB1 (h) turned out to be 0.8.
`NCCCC(=O)O` [GABA, γ-aminobutyric acid, reference compound]: the “nH Ref” value in the data set on GABA (non-selective) is recorded as 0.8.
Take `N=C(N)NCCC[C@@H](N)C(=O)N[C@@H](CCCNC(=N)N)C(=O)N1CCC[C@H]1C(=O)N1C[C@H](O)C[C@H]1C(=O)NCC(=O)N[C@@H](Cc1ccccc1)C(=O)N[C@@H](CO)C(=O)N[C@H](Cc1ccccc1)C(=O)N[C@@H](Cc1ccccc1)C(=O)N[C@@H](CCCNC(=N)N)C(=O)O` [NPC 567]: the “nH Ref” value on B2 (h) is listed as 0.9.
Turning to `CC(=O)O[C@H]1C(=O)[C@@]2(C)[C@H]([C@H](OC(=O)c3ccccc3)[C@]3(O)C[C@H](OC(=O)[C@H](O)[C@@H](NC(=O)c4ccccc4)c4ccccc4)C(C)=C1C3(C)C)[C@]1(OC(C)=O)CO[C@@H]1C[C@@H]2O` [Paclitaxel, reference compound], the “Concentration [μM] at 20% cytotoxicity” value in the data set with HT29 cells stood at 70 µM.
Take `CN1CCc2cc(Cl)c(O)cc2[C@@H](c2ccccc2)C1` [SCH 23390]: at D1 (h), the “nH Ref” value was 0.9.
Consider `CC(C)C[C@@H]1NC(=O)[C@H](C)NC(=O)[C@H]([C@@H](C)O)NC(=O)[C@H](CCC(=O)O)NC(=O)[C@@H]2CCCN2C(=O)[C@H](C)NC(=O)[C@H](CCCCN)NC(=O)[C@@H]2CSSC[C@@H](C(=O)N[C@@H](CCC(N)=O)C(=O)N[C@@H](CCC(N)=O)C(=O)N[C@@H](Cc3cnc[nH]3)C(N)=O)NC(=O)[C@H](CCCNC(=N)N)NC(=O)[C@H](CCCNC(=N)N)NC(=O)[C@H](C)NC(=O)[C@H](CSSC[C@H](N)C(=O)N[C@@H](CC(N)=O)C(=O)N2)NC1=O` [apamin], for which the “nH Ref” value in the data set on SKCa channel is reported as 1.3.
As to `CC(C)NCC(O)COc1ccc(CC(N)=O)cc1` (stereo not shown) [atenolol], the “nH Ref” value on beta 1 (h) is reported as 0.9.
As for `CN1C(=O)CN=C(c2ccccc2)c2cc(Cl)ccc21` [diazepam], the “nH Ref” value with BZD (central) turned out to be 1.1.
Take `C=C(C)[C@@H]1[C@H]2OC(=O)[C@@H]1[C@]1(O)C[C@H]3O[C@]34C(=O)O[C@H]2[C@]14C` [picrotoxinin]: the “nH Ref” value in the data set with Cl-channel (GABA-gated) turned out to be 0.9.
In the case of `CNCC(=O)N[C@@H](CCCN=C(N)N)C(=O)N[C@H](C(=O)N[C@@H](Cc1ccc(O)cc1)C(=O)N[C@H](C(=O)N[C@@H](Cc1cnc[nH]1)C(=O)N1CCC[C@H]1C(=O)N[C@@H](C)C(=O)O)C(C)C)C(C)C` [saralasin], the “nH Ref” value on AT1 (h) is on record as 0.6.
In the case of `COC(=O)[C@@H]1[C@H]2C[C@H]3c4[nH]c5ccccc5c4CCN3C[C@@H]2CC[C@@H]1O` [yohimbine], the “nH Ref” value in the data set with alpha 2 (non-selective) was found to be 0.7.
As to (+)butaclamol, the “nH Ref” value at D2S (h) is 1.0.
With IL-8, in the data set with CXCR2 (IL-8B) (h), the “nH Ref” value is reported as 1.4.
